What was measured:
[1] = target: human μ opioid receptor (Homo sapiens, UniProt P35372); assay: Opioid receptor binding, [3H]DAMGO displacement, CHO cell membranes; conditions: 1.3 nM [3H]DAMGO, 120 min 25 °C
[2] = test system: cocaine-induced convulsions in Swiss Webster mice; assay: Cocaine-induced convulsions; type: in vivo; conditions: 30 mg/kg ip (highest dose tested), 15 min before cocaine 70 mg/kg ip, p < 0.05 Fisher's exact test
[3] = test system: behavioral and neurotoxic effects of cocaine in mice; conditions: cited from earlier work
[4] = test system: mice; conditions: ref unpublished finding, R.R. Matsumoto, Morgantown, WV; cited from earlier work

Chain of human μ opioid receptor (P35372 whole entry): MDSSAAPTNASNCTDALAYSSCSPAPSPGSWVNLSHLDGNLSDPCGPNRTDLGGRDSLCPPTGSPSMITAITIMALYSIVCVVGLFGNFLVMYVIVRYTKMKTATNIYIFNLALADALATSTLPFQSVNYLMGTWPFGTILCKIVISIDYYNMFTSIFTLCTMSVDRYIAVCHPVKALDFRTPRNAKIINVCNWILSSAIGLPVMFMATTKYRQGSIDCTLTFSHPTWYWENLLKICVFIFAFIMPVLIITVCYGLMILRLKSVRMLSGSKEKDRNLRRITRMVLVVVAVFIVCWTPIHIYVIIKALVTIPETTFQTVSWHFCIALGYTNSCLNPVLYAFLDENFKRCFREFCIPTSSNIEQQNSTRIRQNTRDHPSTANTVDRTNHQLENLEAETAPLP

## CN(CCc1ccccc1)[C@H]1CCCC[C@@H]1O (relative stereo) [Compound 6, trans-2-(Methyl(phenethyl)amino)cyclohexanol]
[1]
  Opioid binding Ki ± SEM, μ: no affinity
[2]
  Attenuation of cocaine-induced convulsions: significant attenuation of cocaine-induced convulsions

## c1ccc(CCN2CCCCC2)cc1 [AC927, N-phenethylpiperidine]
[3]
  Effect on behavioral and neurotoxic effects of cocaine: attenuated the behavioral and neurotoxic effects of cocaine in mice
[4]
  Therapeutic window / deaths at supratherapeutic doses: relatively narrow therapeutic window, which can result in deaths in mice at supratherapeutic doses
